Results taken from patent US11976074B1, “Crystalline salts of Linsitinib” (Sling Therapeutics, Inc., priority 2023, dated 2024).
Values after ≈ are worked out from the molar mass of the structure shown.

Legend:
[1] = cited from earlier work
[2] = Equilibrium solubility in bio-relevant media (FaSSGF pH 1.6, FaSSIF pH 6.5); format: physicochemical; conditions: for solubility: thermodynamic from solid, read-out: Solubility
Text: In addition to the pH-solubility data, a comparison of the equilibrium solubility of linsitinib free base and salts in two bio-relevant media (Table 28), fasted state simulated gastric fluid (FaSSGF pH 1.6) and intestinal fluid (FaSSIF pH 6.5) was completed. […] A saturated solution of Esylate 1 was not achieved during this study and therefore the equilibrium solubility could be higher than determined. It should be noted that variability of almost a full pH unit was noted among the samples making a direct comparison more challenging.

[3] = cited from earlier work; remark: listed apart in the source
[4] = pH-solubility of linsitinib free base and selected salts (pH 1.5 to 6.5, overnight equilibration, HPLC); format: physicochemical; conditions: for solubility: aqueous solution, thermodynamic from solid, overnight equilibration, read-out: Solubility; for Final pH: after overnight equilibration
Experimental: The pH-solubility of selected salts (Phosphate 1, L-Malate 1, Esylate 1, and Esylate 2) was evaluated and compared with linsitinib free base. The solubility analysis was conducted in a manner consistent with a previous study that was performed with linsitinib free base. Aqueous solutions were prepared between pH 1.5 and pH 6.5 in 0.5 pH unit increments via titration of the solution using NaOH and HCl. For each salt or the free base, an attempt was made to reach saturation in each of the solutions by adding sufficient material to the solution such that excess solids remained. If saturation was achieved, the pH of the solution was measured and adjusted to the target pH and additional material was added if needed. The samples were then equilibrated overnight. The final pH of the solution was measured, the solids were filtered and selected samples were analyzed by PXRD. The concentration of linsitinib in the filtrate was quantitated by HPLC (diluted as needed). In some cases, significant drift (+1 pH unit or more) of the final pH from the target pH was observed after the overnight equilibration.
The pH-solubility data is shown graphically in FIG. 89. […] Indeed, it should be noted that in the majority of the low pH systems, higher initial dissolution/solubility was observed followed by precipitation of the material from solution upon longer equilibration.

[5] = Heating experiments with selected malate samples; format: physicochemical
Experimental: Based on the thermal data, Malate 4 and Malate 5 were heated at […] for 15 minutes. The solids were re-analyzed by PXRD after heating to investigate any form change upon dehydration. […] While there was an insufficient amount of sample to further characterize Malate 7, based on the conditions upon which it was generated, it could be a lower hydrate or an anhydrous form.

[6] = Polymorph screen of linsitinib malate (PXRD/XRPD result); format: physicochemical; conditions: polymorph screen of linsitinib malate; slurry, cooling, precipitation or lyophilization; solvent and conditions per sample no.; listed as 4-10
Experimental: A Rigaku SmartLab X-Ray Diffractometer was configured in Bragg-Brentano reflection geometry equipped with a beam stop and knife edge to reduce incident beam and air scatter.
A polymorph screen of linsitinib malate was conducted. Experiments were designed to target thermodynamically stable forms and therefore utilized techniques such as long-term slurry, cooling, anti-solvent addition, and evaporation. Reaction crystallization experiments with linsitinib free base and L-malic acid were also conducted. Additionally, non-crystalline material was used as an alternative starting material as this can provide access to polymorphs that would not be accessible from crystalline starting material.

[7] = Thermogravimetric analysis (TGA); format: physicochemical; conditions: start to 65° C.
Experimental: The TG analysis was carried out using a TA Instruments […] Discovery Series instrument. The instrument balance was calibrated using class M weights and the temperature calibration was performed using alumel. The nitrogen purge was 10 mL per minute at the balance and 25 mL per minute at the furnace. The sample was placed into a pre-tared platinum pan and heated from approximately 25° C. to 300° C. at a rate of 10° C. per minute.

[8] = Water activity boundary between malate forms; format: physicochemical; conditions: or 90% relative humidity
Experimental: Malate 2, Malate 4, and Malate 5 were all obtained from high water activity conditions and are suspected to be hydrated forms. Based on the weight loss in the TG thermograms of Malate 4 and Malate 5, they could be di-hydrates. The water activity boundary between Malate 4 and Malate 1 was determined to be approximately 0.9 water activity, or 90% relative humidity. At a water activity of 0.8, Malate 1 was obtained; however, there were additional peaks present by PXRD. […]

C[C@]1(O)C[C@@H](c2nc(-c3ccc4ccc(-c5ccccc5)nc4c3)c3c(N)nccn32)C1 [Linsitinib free base, Cis-3-[8-amino-1-(2-phenyl-7-quinolinyl)imidazo[1,5-a]pyrazin-3-yl]-1-methyl-cyclobutanol, reference compound]
Hygroscopicity ([1]; anhydrous/non-solvated free base form): non-hygroscopic | Solubility under acidic conditions [1]: good solubility | Final pH ([2]; FaSSGF (pH 1.6)): 4.04 | Final pH ([2]; FaSSIF (pH 6.5)): 6.57 | solubility ([2]; fasted state simulated gastric fluid (FaSSGF), pH 1.6, fassgf or other biorelevant, FaSSGF (pH 1.6)): 7670 µg/mL (≈ 18.2 mM) | solubility ([2]; fasted state simulated intestinal fluid (FaSSIF), pH 6.5, fassif, FaSSIF (pH 6.5)): 25 µg/mL (≈ 0.0593 mM) | Permeability [3]: good permeability | solubility ([4]; pH 4, aqueous buffer, target pH 4.0, * = clear solution, not equilibrium value): 116 µg/mL | solubility ([4]; pH 4.5, aqueous buffer, target pH 4.5, * = clear solution, not equilibrium value): 5.1 µg/mL | solubility ([4]; pH 5, aqueous buffer, target pH 5.0): 1.2 µg/mL | solubility ([4]; pH 5.5, aqueous buffer, target pH 5.5): 1.7 µg/mL | solubility ([4]; pH 6, aqueous buffer, target pH 6.0): 1 µg/mL | solubility ([4]; pH 6.5, aqueous buffer, target pH 6.5): 1.2 µg/mL | solubility ([4]; pH adjusted with NaOH and HCl, pH 1.5, aqueous buffer, target pH 1.5, * = clear solution, not equilibrium value): 54000 µg/mL | solubility ([4]; pH adjusted with NaOH and HCl, pH 2, aqueous buffer, target pH 2.0, * = clear solution, not equilibrium value): 23600 µg/mL | solubility ([4]; pH adjusted with NaOH and HCl, pH 2.5, aqueous buffer, target pH 2.5, * = clear solution, not equilibrium value): 17600 µg/mL | solubility ([4]; pH adjusted with NaOH and HCl, pH 3, aqueous buffer, target pH 3.0, * = clear solution, not equilibrium value): 15000 µg/mL | solubility ([4]; pH adjusted with NaOH and HCl, pH 3.5, aqueous buffer, target pH 3.5, * = clear solution, not equilibrium value): 1730 µg/mL | Final pH ([4]; target pH 1.5): 1.52 | Final pH ([4]; target pH 2.0): 2.04 | Final pH ([4]; target pH 2.5): 2.33 | Final pH ([4]; target pH 3.0): 2.76 | Final pH ([4]; target pH 3.5): 3.64 | Final pH ([4]; target pH 4.0): 4.18 | Final pH ([4]; target pH 4.5): 5.54 | Final pH ([4]; target pH 5.0): 6.18 | Final pH ([4]; target pH 5.5): 6.43 | Final pH ([4]; target pH 6.0): 7.02 | Final pH ([4]; target pH 6.5): 6.43

C[C@]1(O)C[C@@H](c2nc(-c3ccc4ccc(-c5ccccc5)nc4c3)c3c(N)nccn32)C1.O=C(O)C[C@H](O)C(=O)O [Malate 4]
XRPD result after heating ([5]; 92° C., 15 min): Malate 7 | Form change upon heating (PXRD) ([5]; heated for 15 minutes): dehydrate to a new form, designated as Malate 7 | PXRD Results [6]: Malate 4 | TGA Results (weight loss) [7]: 7.3%, start to 65 °C | Water activity boundary between Malate 4 and Malate 1 [8]: approximately 0.9 water activity
